Tests used:
[1] = target: T1, Bromodomain-containing protein 2 (Homo sapiens, UniProt P25440); assay: Inhibition of BRD2 bromodomain 2 (348 to 455 residues) (unknown origin) extracted from Escherichia coli […] codon plus RIL cells incubated for 4 hrs by fluorescence anisotropy
[2] = target: Histone acetyltransferase p300 (Homo sapiens, UniProt Q09472); assay: Inhibition of EP300 (1039 to 1161 residues) (unknown origin) extracted from Escherichia coli […] codon plus RIL cells incubated for 4 hrs by fluorescence anisotropy
[3] = target: T1, Bromodomain-containing protein 2; assay: Inhibition of BRD2 bromodomain 1 (67 to 200 residues) (unknown origin) extracted from Escherichia coli […] codon plus RIL cells incubated for 4 hrs by fluorescence anisotropy
[4] = target: T2, Bromodomain-containing protein 4 (Homo sapiens, UniProt O60885); assay: Inhibition of BRD4 bromodomain 1 (44 to 168 residues) (unknown origin) extracted from Escherichia coli […] codon plus RIL cells incubated for 4 hrs by fluorescence anisotropy
[5] = target: T2, Bromodomain-containing protein 4; assay: Inhibition of BRD4 bromodomain 2 (332 to 460 residues) (unknown origin) extracted from Escherichia coli […] codon plus RIL cells incubated for 4 hrs by fluorescence anisotropy

T1 sequence (P25440 whole entry, the tested form may be a part): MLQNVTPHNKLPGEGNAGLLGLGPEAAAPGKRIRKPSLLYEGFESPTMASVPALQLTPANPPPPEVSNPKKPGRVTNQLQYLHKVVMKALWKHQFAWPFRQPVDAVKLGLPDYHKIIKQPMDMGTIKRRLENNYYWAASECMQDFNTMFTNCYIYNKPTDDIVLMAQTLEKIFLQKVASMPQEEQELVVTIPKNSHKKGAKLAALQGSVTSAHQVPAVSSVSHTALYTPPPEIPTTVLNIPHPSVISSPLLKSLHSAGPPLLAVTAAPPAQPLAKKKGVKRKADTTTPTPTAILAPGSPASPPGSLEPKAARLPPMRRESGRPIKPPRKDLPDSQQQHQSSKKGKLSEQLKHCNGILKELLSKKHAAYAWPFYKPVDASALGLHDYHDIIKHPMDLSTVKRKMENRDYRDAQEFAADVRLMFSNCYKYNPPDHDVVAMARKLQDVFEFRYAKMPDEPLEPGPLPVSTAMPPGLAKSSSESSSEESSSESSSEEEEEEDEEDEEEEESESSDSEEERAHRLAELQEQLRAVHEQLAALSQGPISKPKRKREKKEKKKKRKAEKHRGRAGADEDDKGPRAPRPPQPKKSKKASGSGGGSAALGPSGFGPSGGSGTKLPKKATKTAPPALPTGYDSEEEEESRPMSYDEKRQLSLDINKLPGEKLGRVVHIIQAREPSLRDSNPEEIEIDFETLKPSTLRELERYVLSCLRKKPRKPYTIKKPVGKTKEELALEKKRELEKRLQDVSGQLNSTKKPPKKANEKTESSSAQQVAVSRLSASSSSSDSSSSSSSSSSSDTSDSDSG
Histone acetyltransferase p300, sequence (Q09472 whole entry, the tested form may be a part): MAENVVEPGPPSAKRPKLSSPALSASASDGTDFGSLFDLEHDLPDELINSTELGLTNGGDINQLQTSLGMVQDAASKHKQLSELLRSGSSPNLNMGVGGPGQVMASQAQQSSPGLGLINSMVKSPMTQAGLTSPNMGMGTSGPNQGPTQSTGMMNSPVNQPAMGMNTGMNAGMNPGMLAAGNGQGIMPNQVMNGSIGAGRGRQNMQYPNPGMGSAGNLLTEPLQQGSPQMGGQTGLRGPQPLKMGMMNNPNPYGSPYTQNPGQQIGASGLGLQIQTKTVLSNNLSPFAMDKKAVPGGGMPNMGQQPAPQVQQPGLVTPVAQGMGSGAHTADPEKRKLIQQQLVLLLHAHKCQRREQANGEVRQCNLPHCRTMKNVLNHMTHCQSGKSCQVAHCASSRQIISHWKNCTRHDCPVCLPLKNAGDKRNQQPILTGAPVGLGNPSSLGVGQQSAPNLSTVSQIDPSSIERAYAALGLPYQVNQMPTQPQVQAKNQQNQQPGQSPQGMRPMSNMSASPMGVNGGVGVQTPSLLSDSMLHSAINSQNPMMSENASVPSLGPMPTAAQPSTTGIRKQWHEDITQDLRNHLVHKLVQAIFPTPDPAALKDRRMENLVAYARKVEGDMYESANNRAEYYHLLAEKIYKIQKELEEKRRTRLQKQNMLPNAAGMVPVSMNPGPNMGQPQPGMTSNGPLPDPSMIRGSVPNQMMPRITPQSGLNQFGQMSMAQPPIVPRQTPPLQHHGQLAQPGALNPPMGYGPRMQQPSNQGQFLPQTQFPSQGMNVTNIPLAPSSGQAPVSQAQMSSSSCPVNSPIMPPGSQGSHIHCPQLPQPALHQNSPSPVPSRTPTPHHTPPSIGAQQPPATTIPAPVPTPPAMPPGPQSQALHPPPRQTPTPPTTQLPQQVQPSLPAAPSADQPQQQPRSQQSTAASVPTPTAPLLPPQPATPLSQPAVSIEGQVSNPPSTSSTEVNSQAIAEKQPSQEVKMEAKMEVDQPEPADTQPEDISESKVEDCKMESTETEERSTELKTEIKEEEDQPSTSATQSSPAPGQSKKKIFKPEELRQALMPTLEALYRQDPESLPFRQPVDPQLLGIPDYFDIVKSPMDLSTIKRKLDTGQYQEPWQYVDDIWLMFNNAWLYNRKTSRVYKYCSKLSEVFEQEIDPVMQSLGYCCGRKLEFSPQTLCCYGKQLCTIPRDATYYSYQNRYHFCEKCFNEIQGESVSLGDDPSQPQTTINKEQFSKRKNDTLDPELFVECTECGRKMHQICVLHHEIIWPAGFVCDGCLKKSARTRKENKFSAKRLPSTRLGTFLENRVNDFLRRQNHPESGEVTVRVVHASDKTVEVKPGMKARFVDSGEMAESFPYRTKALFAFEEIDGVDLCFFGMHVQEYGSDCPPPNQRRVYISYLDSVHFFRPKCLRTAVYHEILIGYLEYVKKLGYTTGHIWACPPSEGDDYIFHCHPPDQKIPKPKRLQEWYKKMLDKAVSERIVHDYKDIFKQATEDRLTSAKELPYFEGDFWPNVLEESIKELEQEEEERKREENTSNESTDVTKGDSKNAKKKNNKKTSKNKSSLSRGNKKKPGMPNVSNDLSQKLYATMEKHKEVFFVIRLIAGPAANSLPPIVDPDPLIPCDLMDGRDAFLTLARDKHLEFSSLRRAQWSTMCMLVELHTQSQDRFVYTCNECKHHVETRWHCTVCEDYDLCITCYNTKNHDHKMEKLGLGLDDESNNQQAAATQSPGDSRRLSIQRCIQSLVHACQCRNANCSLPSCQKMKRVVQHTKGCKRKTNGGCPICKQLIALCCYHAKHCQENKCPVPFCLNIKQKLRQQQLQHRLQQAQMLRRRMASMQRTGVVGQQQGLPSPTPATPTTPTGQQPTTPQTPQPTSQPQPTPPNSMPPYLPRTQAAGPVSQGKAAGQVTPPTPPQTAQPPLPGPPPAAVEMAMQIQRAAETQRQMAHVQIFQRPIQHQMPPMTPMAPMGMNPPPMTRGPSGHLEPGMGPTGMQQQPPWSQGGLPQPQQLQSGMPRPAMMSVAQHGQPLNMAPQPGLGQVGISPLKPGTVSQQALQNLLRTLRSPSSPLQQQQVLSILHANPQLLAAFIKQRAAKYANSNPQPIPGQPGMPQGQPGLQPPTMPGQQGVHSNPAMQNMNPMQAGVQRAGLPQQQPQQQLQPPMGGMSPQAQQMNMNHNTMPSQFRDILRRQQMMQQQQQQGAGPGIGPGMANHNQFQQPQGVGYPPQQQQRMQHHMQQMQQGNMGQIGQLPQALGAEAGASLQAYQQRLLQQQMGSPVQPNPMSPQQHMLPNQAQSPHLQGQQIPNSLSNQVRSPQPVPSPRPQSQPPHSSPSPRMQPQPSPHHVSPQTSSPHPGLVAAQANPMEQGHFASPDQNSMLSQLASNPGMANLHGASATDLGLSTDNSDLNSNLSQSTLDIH

In the case of `Cc1cc(Nc2nn(C)c3ccccc23)nc(Nc2ccc3c(c2)N(C(C)C)[C@H](C)C(=O)N3C)n1`, the IC50 [1] is reported as 291 nM, the IC50 [2] is reported as greater than 1000 nM and the IC50 [3] is reported as 50.5 nM.

With `CCc1cc(Nc2cccc(Cl)c2)nc(Nc2ccc3c(c2)N(C(C)C)[C@H](C)C(=O)N3C)n1` the IC50 [4] was 504 nM and the IC50 [5] was 2070 nM.

`CCc1cc(Nc2nn(C)c3ccccc23)nc(Nc2ccc3c(c2)N(C(C)C)[C@H](C)C(=O)N3C)n1` gave an IC50 [1] of 302 nM, an IC50 [2] greater than 1000 nM and an IC50 [3] of 29.3 nM.

In the case of `CC(C)N1c2cc(Nc3nccc(Nc4nn(C)c5ccccc45)n3)ccc2N(C)C(=O)[C@H]1C`, the IC50 [1] is reported as 233 nM, the IC50 [2] is reported as greater than 1000 nM and the IC50 [3] is reported as 31.8 nM.

— ChEMBL document CHEMBL6103593, “Design of Selective BRD4 Inhibitors for the Treatment of Autosomal Dominant Polycystic Kidney Disease” (J Med Chem, 2025)
